Measurements published in patent publication US4206127A, “5,6-Dihydro analogues of prostaglandin I2” (Miles Laboratories, Inc., priority 1978, dated 1980).

Legend:
rat gastric secretion = test: Effects of Prostaglandin Analogues on Gastric Secretion in the Rat (Test B); type: in vivo; conditions: pylorus-ligated rats, subcutaneous 1.5 mg/kg twice (total 3.0 mg/kg), 4 hours
Description: B. Evaluation of the Effects of Prostaglandin Analogues on Gastric Secretion in the Rat
A procedure based on that described by Lipmann (J. Pharm. Pharmacol., 21: 335 [1968]) was used to assess the influence of test compounds on gastric secretion. Rats of one sex weighing 150 to 200 g were randomly divided into groups of six animals each and fasted for 48 hours previously to the experiments, water being available ad libitum. The animals were anesthetized with ether, the abdomen was opened through a midline incision and the pylorus was ligated. Test compounds were diluted from stock solution so as to administer a dose of 1.5 mg/kg in a volume equivalent to 1 ml/kg. Subcutaneous injections were applied immediately after surgery and again 2 hours later, so that a total dose of 3.0 mg/kg was administered. Dilutions were made with phosphate buffer (pH 7.38), as recommended by Lee et al. (Prostaglandins 3: 29 [1973]), in order to insure adequate stability of drugs at the subcutaneous depot. […]
Four hours after pyloric ligation the animals were killed with ether, the cardias ligated and stomachs removed. The volume of gastric secretion was measured and the contents centrifuged at 5000 rpm for 10 minutes. […]
Volume and total acid values of the treated group were compared with those of the controls by the "Squared" test. Antisecretory activity was scored according to the following scale: […]

blood vessels = conditions: cited from earlier work
platelet aggregation = conditions: cited from earlier work

Compound: 9-Deoxy-9a-Homo-6, 9α-epoxy-15S-hydroxyprost-13E-en-1-oic acid [TR-4921]
- Activity Value, Test B - inhibition of rat gastric secretion (score of % decrease in acidity) (rat gastric secretion): 2 (26-50, significant)

Compound: CCCCC[C@H](O)/C=C/[C@@H]1[C@H]2C/C(=C/CCCC(=O)O)O[C@H]2C[C@H]1O [PGI2, (5Z)-9-deoxy-6, 9α-epoxy-Δ^5-prostaglandin F1α]
- dilation of blood vessels (blood vessels): dilates blood vessels dramatically
- inhibition of platelet aggregation (platelet aggregation): the most potent inhibitor of platelet clumping of all the prostaglandins discovered to date
- destruction of platelet clumps (platelet aggregation; in vitro, clumps already induced to form): destroys platelet clumps after they have been induced to form

Compound: Ethyl 5, 9β-Epoxy-11α,15-dihydroxy-16,20-methanoprost-13E-en-1-oate [TR-4973]
- Activity Value, Test B - inhibition of rat gastric secretion (score of % decrease in acidity) (rat gastric secretion): 0 (<26)
